Measured values published in patent EP1428520A2, “Lipase inhibitors in deodorants and antiperspirants” (Henkel Kommanditgesellschaft auf Aktien, priority 2002, dated 2004).

Tested on: Lipase (Fa. Sigma) aus Pseudomonas species
Experiment: In vitro lipase inhibition test (Lipase Color Liquid assay, photometric release of methylresorufin)
Format: biochemical
Conditions: 37°C, pH 8.4, activity without inhibitor = 100%
Source text: Die hemmende Wirkung der Enzym-Inhibitoren wurde in vitro an einem geeigneten Modellenzym nachgewiesen. Da eine hautrelevante Lipase nicht zur Verfügung stand, diente die Lipase (Fa. Sigma) aus Pseudomonas species als Modellenzym, um die Hemmwirkung der erfindungsgemäß verwendeten Inhibitoren zu testen. Als Referenz diente Hinokitiol.
Der Nachweis der Lipase-Enzymaktivität erfolgt analog zu den Angaben im Lipase Color Liquid Autom ―Datenblatt der Fa. Sentinel. Hierbei wird die Lipase-katalysierte Spaltung von 1,2-O-dilauryl-rac-glycero-3-glutarsäure-(6'-methylresorufin)-ester in Glutarsäure und Methylresorufin bestimmt. Die Freisetzung des Methylresorufin verursacht eine Purpurfärbung (λ = 580 nm), deren Bildung photometrisch verfolgt wird. [drawing 4]
Der Assay wurde nach Herstellerangaben (37°C, Gesamtvolumen 1.21 ml) durchgeführt und enthielt: 37 mM Tris-Puffer (pH 8.4), 1,6 mM Desoxycholat, 6.6 mM Taurodesoxycholat, 0.9 mg/l Colipase, 1.5 mM Tartrat, 0.1 mM CaCl2 und 0.24 mM 1,2-O-dilauryl-rac-glycero-3-glutaric acid-(6'-methylresorufin)-ester (Substrat). Die Reaktion wurde mit 0.005 U Lipase (10 µl) gestartet und nach einer Inkubation von einer Minute die Zunahme der Absorption bei […] über 2 min verfolgt. Der lineare Anstieg der Absorption (A) pro Zeiteinheit (t) war hierbei ein Maß für die Aktivität des Enzyms (ΔA/Δt). Die Aktivität des Enzyms in Abwesenheit eines Inhibitors, (ΔA1/Δt1 ), wurde als Referenz gleich 100% gesetzt. Unter analogen Bedingungen wurden die Aktivitäten in Gegenwart eines Inhibitors (ΔA2/Δt2) bestimmt. Die Hemmwirkung des Inhibitors bzw. die Minderung der Enzymaktivität entspricht dann: 100% - (ΔA2/Δt2 )/( ΔA1/Δt1 )%.

Structure (SMILES): CCCCCCCCCCCC(=O)NC(CCC(=O)O)C(=O)O (stereo not drawn) [Protelan AGL95PV, Natriumlauroylglutamat]
- Hemmwirkung (Minderung der Lipase-Aktivität) (inhibitor concentration 0,01 % (v/v)): 29%
- Hemmwirkung (Minderung der Lipase-Aktivität) (inhibitor concentration 0,1 % (v/v)): 56%
- Hemmwirkung (Minderung der Lipase-Aktivität) (inhibitor concentration 1 % (v/v)): 85%
